Source: patent US20110020312A1, “METHODS FOR TREATMENT OF METABOLIC DISORDERS USING EPIMETABOLIC SHIFTERS, MULTIDIMENSIONAL INTRACELLULAR MOLECULES, OR ENVIRONMENTAL INFLUENCERS” (priority 2009, published 2011)

Experiments:
HDFa cells = test: Extracellular acidification rate (ECAR), SeaHorse XF analyzer; assay type: cell-based, human
Description: Environmental influencers (e.g., MIMs or Epi-shifters) may also be identified by changes in cellular energetics. One example of the measurement of cellular energetics are the real-time measures of the consumption of molecular oxygen and/or the change in pH of the media of a cell culture. For example, the ability of a potential epi-shifter to modulate the metabolic state of a cell may be analyzed using, for example, the XF24 Analyzer (Seahorse, Inc.). This technology allows for real time detection of oxygen and pH changes in a monolayer of cells in order to evaluate the bioenergetics of a cell microenvironment. The XF24 Analyzer measures and compares the rates of oxygen consumption (OCR), which is a measure of aerobic metabolism, and extracellular acidification (ECAR), which is a measure of glycolysis, both key indicators of cellular energetics.
(SeaHorse Biosciences Inc, North Billerica, Mass.).
In this experiment, the OCR and extracellular acidification rate (ECAR) in normal cells lines were obtained in the presence and absence of CoQ10 to determine baseline values. It was observed that in its native nutrient environment, the basal OCR rates in normal cells lines are different, and are usually a function of the physiological roles of the cells in the body.
Table 51 below describes the ECAR values (mpH/min) in HDFa cells in the presence or absence of CoQ10 under normoxic and hypoxic conditions at 5.5 mM and 22 mM glucose.

SCC cells = test: Real-time PCR Heat Shock Protein Array; assay type: cell-based; conditions: 100 μM
Description: The control cells were untreated cells.
Heat Shock Arrays were run for SCC cells and the data of regulated genes is summarized below in Table 13.

MCF-7 cells = test: Nexin assay for apoptosis, 24 h Q10; assay type: cell-based; conditions: 50 μM and 100 μM Q10, 24 hours
Description: The 7AAD dye will enter into cells with permeabilized cell membranes; primarily those cells that are in late apoptosis. Annexin-V-PE is a dye that binds to Phosphotidyl serine, which is exposed on the outer surface of the plasma membrane in early apoptotic cells. The Nexin reagent thus can be used to differentiate between different populations of apoptotic cells in a flow cytometer.

[1] = test system: HepG2 (liver cancer) cells; test: PCR Diabetes Array; assay type: cell-based
Method: The treatment was initiated on 1×10^5 cells per well, following the procedure utilized in the PaCa2 cells (above, Examples 9-11). However, the total amount of RNA that was extracted from these samples was lower than expected. Reverse transcription is normally done using 1 μg of total RNA (determined by measurement at 260 nm). The maximum volume that can be used per reverse transcription is 8 μl.

[2] = test system: Pyruvate Kinase M2 (PKM2); test: Western blot, Pyruvate Kinase M2 levels; assay type: cell-based, human
Method: The samples were processed and run on a 4-12% Bis-Tris Novex NuPAGE gel as described above. The gels were run, transferred and stained essentially as described above.
The lactate dehydrogenase blots were stripped by incubating for 30 minutes with methanol, followed by two 10 minute washes with TBS-T, then 30 minutes of incubation with Stripping buffer at 50 deg C., and followed by two washes with 100 ml or more of TBS-T for 30′ each. The 2 blots were scanned in laser scanner to check for complete stripping. The blots were activated with methanol for 5 seconds, washed with water for 5 minutes, and TBST for 15 minutes. The blots were blocked for 1 hour with 5% blocking reagent in TBS-T at room temperature and then washed 3 times with TBS-T (1×-15′; 2×5′ each) and probed with the rabbit polyclonal antibody for Pyruvate Kinase M2 in 5% BSA (NOVUS BIOLOGICALS catalog #H00005315-DO1P) at 1:500 dilution overnight at 4 deg C. with shaking. After the overnight incubation with primary antibody for Pyruvate Kinase M2, the membranes were washed 3 times with TBS-T (1×-15′; 2×5′ each) and probed with the secondary antibody (antirabbit; 1:10,000 dilution) for 1 h on the orbital tilting shaker at room temperature. After 1 h of incubation with secondary antibodies, the blots were washed 3 times with TBS-T (1×-15′; 2×5′ each) and then incubated with ECF reagent for 5 minutes and then each blot scanned with 5100 Fuji Laser scanner at 25 uM resolution, 16 bit, green laser, at 400V and at 500 V.
The HASMC samples were processed and the gels were run, transferred, stained and scanned essentially as described above.
The above blots were stripped by incubating for 30 minutes with methanol, followed by two 10 minute washes with TBS-T, then 30 minutes of incubation with Stripping buffer at 50 deg C., and followed by two washes with 100 ml or more of TBS-T for 30′ each. The blots were scanned in laser scanner to check for complete stripping. The blots were activated with methanol for 5 seconds, washed with water for 5 minutes, and TBST for 15 minutes. The blots were blocked for 1 hour with 5% blocking reagent in TBS-T at room temperature and then washed 3 times with TBS-T (1×-15′; 2×5′ each) and probed with the primary antibody for PKM2, SDHB or SDHC in 5% BSA in TBS-T by incubation overnight at 4 deg C. with gentle shaking. The primary antibody for SDHC (ABNOVA H00006391-MO2; antimouse) was at 1:500 dilution. The primary antibody for SDHB was from Abcam ab4714-200; antimouse; at 1:1000 dilution. The primary antibody for Pyruvate Kinase M2 (PKM2) was from Novus Biologicals H00005315-D0IP; antirabbit; at 1:500 dilution. After incubation with primary antibodies, the membranes were washed 3 times with TBS-T (1×-15′; 2×5′ each) and probed with the secondary antibody (SDHB & C antimouse; and PKM2 antirabbit; 1:10,000 dilution) for 1 h on the orbital tilting shaker at room temperature. After 1 h of incubation, the blots were washed 3 times with TBS-T (1×-15′; 2×5′ each) and incubated with ECF reagent for 5 minutes and then each blot scanned with 5100 Fuji Laser scanner at 25 uM resolution, 16 bit, green laser, at 400V and at 500 V.

With `COC1=C(OC)C(=O)C(C/C=C(\C)CC/C=C(\C)CC/C=C(\C)CC/C=C(\C)CC/C=C(\C)CC/C=C(\C)CC/C=C(\C)CC/C=C(\C)CC/C=C(\C)CCC=C(C)C)=C(C)C1=O` [Q10, Coenzyme Q10] the ECAR (HDFa cells; high glucose hypoxic conditions, to value of untreated normoxic conditions) was “lowering of elevated ECAR”, the ECAR values (HDFa cells; normal cells, normoxic and hypoxic, 5.5 mM and 22 mM glucose) was “minimal influence” and the “DNAJA1 gene Regulation” value (SCC cells; at 6 hours) was “Up regulated at 6”. For the same molecule, the “DNAJB5 gene Regulation” value (SCC cells; at 6 hours) was “Down regulated”, the “DNAJB13 gene Regulation” value (SCC cells; at 6 hours) was “Down regulated” and the “DNAJC4 gene Regulation” value (SCC cells; at 6 hours) was “Down regulated”. For the same molecule, the “DNAJC5B gene Regulation” value (SCC cells; at 6 hours) was “Down regulated”, the “DNAJC12 gene Regulation” value (SCC cells; at 6 hours) was “Down regulated” and the “HSPA8 gene Regulation” value (SCC cells; at 6 hours) was “Up regulated at 6”. For the same molecule, the “HSPH1 gene Regulation” value (SCC cells; at 6 hours) was “Up regulated at 6”, the “CCT6B gene Regulation” value (SCC cells; at 24 hours) was “Down regulated” and the early/late apoptotic population (MCF-7 cells) was “increase only in early apoptotic population”. The “PPARGC1A mRNA downregulated” value ([1]; 100 μM Q10, 16 hours) was “approximately 20 fold”, the “PRKAA1 mRNA downregulated” value ([1]; 100 μM Q10, 16 hours) was roughly 6 fold and the “SNAP25 mRNA downregulated” value ([1]; 100 μM Q10, 16 hours) was roughly 5 fold. The “PPARGC1A mRNA” value ([1]; 100 μM Q10, 48 hours) was “normalized or were slightly upregulated”, the “PRKAA1 mRNA” value ([1]; 100 μM Q10, 48 hours) was “normalized or were slightly upregulated” and the “SNAP25 mRNA downregulated” value ([1]; 100 μM Q10, 48 hours) was “approximately 2 fold”. The “Pyruvate Kinase Muscle form 2 Upper Band Normalized Intensity” value ([2]; HASMC, 5g48-50) was 811, the “Pyruvate Kinase Muscle form 2 Upper Band Normalized Intensity” value ([2]; HASMC, 5g48-100) was 611 and the “Pyruvate Kinase Muscle form 2 Upper Band Normalized Intensity” value ([2]; HASMC, 22G24-50) was 477. The “Pyruvate Kinase Muscle form 2 Upper Band Normalized Intensity” value ([2]; HASMC, 22G24-100) was 701, the “Pyruvate Kinase Muscle form 2 Upper Band Normalized Intensity” value ([2]; HASMC, 22G48-50) was 595 and the “Pyruvate Kinase Muscle form 2 Upper Band Normalized Intensity” value ([2]; HASMC, 22G48-100) was 496. The “Pyruvate Kinase Muscle form 2 Upper Band Normalized Volume” value ([2]; HepG2, 5g-50, 24 h) was 29269, the “Pyruvate Kinase Muscle form 2 Upper Band Normalized Intensity” value ([2]; HepG2, 5g-50, 48 h) was 303 and the “Pyruvate Kinase Muscle form 2 Upper Band Normalized Volume” value ([2]; HepG2, 5g-100, 24 h) was 18307. For the same molecule, the “Pyruvate Kinase Muscle form 2 Upper Band Normalized Intensity” value ([2]; HepG2, 5g-100, 48 h) was 354, the “Pyruvate Kinase Muscle form 2 Upper Band Normalized Volume” value ([2]; HepG2, 22G-50, 24 h) was 22294 and the “Pyruvate Kinase Muscle form 2 Upper Band Normalized Intensity” value ([2]; HepG2, 22G-50, 48 h) was 562. For the same molecule, the “Pyruvate Kinase Muscle form 2 Upper Band Normalized Volume” value ([2]; HepG2, 22G-100, 24 h) was 19560, the “Pyruvate Kinase Muscle form 2 Upper Band Normalized Intensity” value ([2]; HepG2, 22G-100, 48 h) was 601 and the PKM2 expression ([2]; cancer cells tested) was “dose-dependent decrease”. For the same molecule, the PKM2 expression ([2]; normal cells) was “no major changes”.
